Measurements published in US20260373119A1, “NOVEL COMPOUND, AND COMPOSITION FOR PREVENTING OR TREATING HER2-POSITIVE CANCER, COMPRISING SAME” (EWHA UNIVERSITY - INDUSTRY COLLABORATION FOUNDATION, priority 2022, published 2026).

Experiments:
[1] = biological target: MED23 wild-type (FLAG-tagged) (Homo sapiens, UniProt Q9ULK4); test: LC-MS/MS protein-small molecule interaction, wild-type MED23; format: binding; conditions: internal standard
Experimental: HEK293 cells were seeded in a […] and incubated until they reached 70-80% confluency. The cells were transfected with p3Xflag-myc-CMV26-MED23^WT and p3Xflag-myc-CMV26-MED23^D400A/H449G plasmids for 24 hours, followed by lysis to obtain protein extracts. To isolate the candidate compound (YK1) bound to MED23, total lysates were incubated with YK1 for 4 hours and subsequently subjected to pulldown using FLAG-agarose beads (Sigma Aldrich, USA). The precipitated beads were washed at least three times to completely remove unbound compounds. To separate the candidate compound from the precipitated MED23, 50 μL of the sample was extracted with 1 mL of acetonitrile and centrifuged at 13,000 rpm at 4 °C for 10 minutes. The supernatant (1,000 μL) from each sample was transferred to a new tube and dried under nitrogen gas at 37 °C. For YK1 analysis, the residue was dissolved in 50 μL of ACN and vortexed for 10 minutes. […] The mixture was then extracted with 450 μL of ACN by ultrasonic treatment and vortex mixing. The candidate compound bound to MED23 was finally analyzed using an Agilent 6460 triple quadrupole mass spectrometer (Agilent Technologies, USA).

[2] = system: HCT15 (HER2-positive colorectal cancer cell line); test: antiproliferative effect, HCT15; format: cell-based; conditions: Homo sapiens, HCT-15, 72 hours
Experimental: (§1) The antiproliferative effects were measured after treating Compounds 1 to 22 for 72 hours on HCT15 (HER2-positive colorectal cancer cell line), NCI-N87 (HER2-positive gastric cancer cell line), T47D (HER2-negative breast cancer cell line), and HeLa (HER2-negative cervical cancer cell line). As a result, strong antiproliferative effects were generally observed in the NCI-N87 cell line (Table 2).
(§2) The antiproliferative effects of the candidate compound, resulting from HER2 inhibition, were evaluated. Specifically, to confirm the anticancer effects of the candidate compound, cancer cells were seeded at a density of 10^4 cells/well in a 96-well cell culture plate for 20 hours. The cells were starved in serum-free media for 4 hours, followed by replacement with media containing the compound at specified concentrations. The cells were then incubated for 72 hours under conditions of 5% CO2 at 37 °C. Cell viability was determined by adding 5 μL of EZ-CytoX to each well and measuring absorbance at 450 nm. The measurements were performed using an ELISA Microplate Reader (VersaMax, Molecular Devices).

[3] = biological target: T1, ELF3-MED23 protein-protein interaction (Homo sapiens, UniProt Q9ULK4); test: SEAP reporter assay, ELF3-MED23 PPI inhibition (293T kidney cells); format: cell-based; conditions: 10 μM; for inhibition at 10 µM: HEK-293T
T1 construct: followed by the addition of either the candidate compound or MED23 protein constructs; endogenous in cells; host or cells: 293T kidney cells (MED23 endogenous; GAL4-ELF3 transfected)
T1 sequence (Q9ULK4 1-1368): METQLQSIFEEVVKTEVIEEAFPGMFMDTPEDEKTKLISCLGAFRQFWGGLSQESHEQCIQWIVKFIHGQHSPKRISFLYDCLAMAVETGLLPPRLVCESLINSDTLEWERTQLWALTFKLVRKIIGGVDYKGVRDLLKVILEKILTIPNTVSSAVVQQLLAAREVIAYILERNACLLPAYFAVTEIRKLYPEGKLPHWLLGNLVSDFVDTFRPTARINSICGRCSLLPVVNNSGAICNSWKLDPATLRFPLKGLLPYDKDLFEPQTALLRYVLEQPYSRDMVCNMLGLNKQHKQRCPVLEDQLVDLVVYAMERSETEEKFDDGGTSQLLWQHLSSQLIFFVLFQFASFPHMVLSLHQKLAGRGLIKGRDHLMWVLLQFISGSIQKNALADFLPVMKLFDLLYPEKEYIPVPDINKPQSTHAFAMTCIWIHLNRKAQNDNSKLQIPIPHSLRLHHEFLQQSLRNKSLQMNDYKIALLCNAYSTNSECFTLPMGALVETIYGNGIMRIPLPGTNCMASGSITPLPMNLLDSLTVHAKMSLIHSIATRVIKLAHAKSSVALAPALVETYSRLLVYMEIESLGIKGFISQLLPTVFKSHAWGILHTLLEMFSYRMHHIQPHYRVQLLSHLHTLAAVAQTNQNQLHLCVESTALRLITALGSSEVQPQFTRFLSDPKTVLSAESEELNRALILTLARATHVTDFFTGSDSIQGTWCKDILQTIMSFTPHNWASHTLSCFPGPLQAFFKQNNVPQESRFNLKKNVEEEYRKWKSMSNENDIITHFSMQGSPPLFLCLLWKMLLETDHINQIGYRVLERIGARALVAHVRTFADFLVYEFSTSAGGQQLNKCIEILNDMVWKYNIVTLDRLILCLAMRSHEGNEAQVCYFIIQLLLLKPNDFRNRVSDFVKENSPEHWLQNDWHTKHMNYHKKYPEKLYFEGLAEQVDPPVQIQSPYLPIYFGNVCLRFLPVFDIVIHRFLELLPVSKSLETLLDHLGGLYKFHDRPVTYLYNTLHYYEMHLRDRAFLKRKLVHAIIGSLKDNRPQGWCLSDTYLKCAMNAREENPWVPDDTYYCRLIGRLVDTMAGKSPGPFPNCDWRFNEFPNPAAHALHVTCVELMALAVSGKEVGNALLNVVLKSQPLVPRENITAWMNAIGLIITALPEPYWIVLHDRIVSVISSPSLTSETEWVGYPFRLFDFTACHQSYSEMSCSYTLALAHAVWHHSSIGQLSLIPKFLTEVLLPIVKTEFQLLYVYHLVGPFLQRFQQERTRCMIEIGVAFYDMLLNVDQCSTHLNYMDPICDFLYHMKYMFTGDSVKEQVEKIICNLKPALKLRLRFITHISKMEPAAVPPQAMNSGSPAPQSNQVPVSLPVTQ
Experimental: To verify whether the D400 and H449 residues play a critical role in the ELF3-MED23 protein-protein interaction, a SEAP assay was performed. Specifically, 293T kidney cells were seeded at a density of 5×10^3 cells/well in a 96-well microplate (SPL, Korea) and cultured overnight. Subsequently, the cells were co-transfected with 100 ng of each plasmid using transfection-optimized medium (Welgene, Korea). The plasmids used included the SEAP reporter gene (pG5IL2SX) and GAL4-ELF3 expression vector (pBJ GAL4-ELF3). For transfection, the cells were incubated with WelFectQ (Welgene, Korea) for 3 hours, followed by the addition of either the candidate compound or MED23 protein constructs (pcDNA MED23^WT, K397A, D400A, H449G, and D400A/H449G). The treated cells were incubated for 12 hours. The candidate compound was added in an incubator at 5% CO2 and 37 °C, and the plate was incubated at 65 °C for 3 hours to inactivate all enzymes except SEAP (Secreted Alkaline Phosphatase). A mixture comprising 100 μL of substrate solution prepared with 1.19 μL of 0.1 M 4-methylumbelliferyl phosphate (Sigma, USA), 25 μL of inactivated medium, and 75 μL of double-distilled water was added, followed by the addition of 98.81 μL of 2 M diethanolamine (pH 10, Sigma, USA). The plate was incubated overnight at 37 °C. Subsequently, the fluorescence intensity was measured using a fluorometer (SPECTRAmax […], Molecular Devices, USA) at an excitation wavelength of 360 nm and an emission wavelength of 440 nm.
To further elaborate on the above findings, small molecule compounds that could affect the ELF3-MED23 PPI were designed and synthesized. Specifically, non-essential side chains were removed from gefitnib, and compounds were designed to include both hydrogen bond donors and acceptors for the D400 and H449 residues of MED23, respectively (FIG. 4A). Specifically, chalcones and pyrazolines were selected as core scaffolds, and 25 compounds (11 chalcones and 14 pyrazoline-based compounds) were prepared. The ELF3-MED23 PPI inhibitory activity of all prepared compounds was measured using a SEAP assay.

[4] = system: T47D (HER2-negative breast cancer cell line); test: antiproliferative effect, T47D; format: cell-based; conditions: Homo sapiens, 72 hours
Experimental: as §1, §2

[5] = system: NCI-N87 (HER2-positive gastric cancer cell line); test: antiproliferative effect, NCI-N87; format: cell-based; conditions: Homo sapiens, NCI-N87; 72 hours; HER2-positive
Experimental: as §1, §2

[6] = system: HeLa (HER2-negative cervical cancer cell line); test: antiproliferative effect, HeLa; format: cell-based; conditions: Homo sapiens, 72 hours
Experimental: as §1, §2

[7] = biological target: T1, ELF3-MED23 protein-protein interaction; conditions: cited from earlier work; for PPI inhibitory activity relative to gefitinib: ELF3-MED23 PPI
[8] = biological target: T2, (His)6-MED23391-582 / FITC-ELF3129-145 peptide (Homo sapiens, UniProt Q9ULK4); test: fluorescence polarization displacement assay; format: binding; conditions: 80 nM (His)6-MED23391-582, 10 nM FITC-ELF3129-145; Cheng-Prusoff; read-out: PPI inhibitory activity calculated based on Ki value
T2 construct: 391-582 and fluorescein isothiocyanate (FITC)-labeled
T2 sequence (Q9ULK4 391-582 limits assumed): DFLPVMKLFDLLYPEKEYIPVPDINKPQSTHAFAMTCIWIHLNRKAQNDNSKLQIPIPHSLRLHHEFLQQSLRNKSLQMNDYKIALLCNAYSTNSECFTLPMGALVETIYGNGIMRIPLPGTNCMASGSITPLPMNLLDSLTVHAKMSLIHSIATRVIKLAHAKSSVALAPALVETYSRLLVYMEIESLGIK
Experimental: The samples, adjusted to a final volume of 50 μL, were incubated at room temperature for 30 minutes. Kd values were calculated using a least-squares non-linear fit method with Prism 6.0 software (GraphPad Software, USA). FP signals were measured in millipolarization (mP) units using an Infinite F200 PRO microplate reader (Tecan Group Ltd., Switzerland) at an excitation wavelength of 485 nm and an emission wavelength of 535 nm. For displacement analysis, graded concentrations of YK1 and unlabeled ELF3137-144 peptides were mixed with 80 nM (His) 6-MED23391-582 and 10 nM FITC-ELF3129-145.
The effect of compound YK1 was confirmed by measuring the reduction in FP signals, using unlabeled peptides as a positive control. The IC50 of each compound was determined by fitting the data to a four-parameter logistic equation using the Table Curve 2D program (SPSS Inc.). The Ki value was calculated using the Cheng-Prusoff equation (Ki=IC50/1+([Ligand]/Kd))

Row | Compound | binding affinity to MED23 relative to candidate compound [1] | IC50 [2] [µM] | inhibition at 10 µM [3] [%] | IC50 [4] [µM] | IC50 [5] [µM] | IC50 [6] [µM] | known ELF3-MED23 PPI inhibition [7] | PPI inhibitory activity relative to gefitinib [7] | Ki [8] [µM] | SEAP assay Inhibition (%) [3] [%]
1 | COc1ccc(C2CC(c3ccccc3O)=NN2C(C)=O)c2ccccc12 (centres unmarked) [Compound 18, 1-[3-(2-Hydroxyphenyl)-5-(4-methoxynaphthalen-1-yl)-4,5-dihydropyrazol-1-yl]-ethanone] | lower binding affinity to MED23 | 19.7 ± 0.05 | 0 | 29.28 ± 0.27 | > 50 | 6.69 ± 0.4 | – | – | – | –
2 | CC(=O)N1N=C(c2ccccc2O)CC1c1ccc(O)cc1 (centres unmarked) [Compound 19, 1-[5-(4-Hydroxyphenyl)-3-(2-hydroxyphenyl)-4,5-dihydropyrazol-1-yl]-ethanone] | – | > 50 | 39 | > 50 | > 50 | > 50 | – | – | – | –
3 | CC(=O)N1N=C(c2ccccc2O)CC1c1ccc(Cl)cc1 (centres unmarked) [Compound 20, 1-[5-(4-Chlorophenyl)-3-(2-hydroxyphenyl)-4,5-dihydropyrazol-1-yl]-ethanone] | – | > 50 | 45 | > 50 | > 50 | > 50 | – | – | – | –
4 | CC(=O)N1N=C(c2ccccc2O)CC1c1cccs1 (centres unmarked) [Compound 21, 1-[3-(2-Hydroxyphenyl)-5-thiophen-2-yl-4,5-dihydropyrazol-1-yl]-ethanone] | – | > 50 | 57 | > 50 | > 50 | > 50 | – | – | – | –
5 | COc1ccc(C2CC(c3ccccc3O)=NN2C(C)=O)cc1 (centres unmarked) [Compound 22, 1-[3-(2-Hydroxyphenyl)-5-(4-methoxyphenyl)-4,5-dihydropyrazol-1-yl]-ethanone] | – | 40.3 ± 0.51 | 63 | > 50 | > 50 | > 50 | – | – | – | –
6 | COc1cc2ncnc(Nc3ccc(F)c(Cl)c3)c2cc1OCCCN1CCOCC1 [Gefitinib, gefitinib, reference compound] | – | – | 85 | – | – | – | inhibit ELF3-MED23 protein-protein interaction (PPI) | – | – | –
7 | CC(C)N(CC(O)COc1cccc2[nH]ccc12)C(=O)N1CCC(C2CCN(C(=O)C34CC5CC(CC(C5)C3)C4)CC2)CC1 (centres unmarked) [adamanolol] | – | – | – | – | – | – | inhibit ELF3-MED23 protein-protein interaction (PPI) | – | – | –
8 | C=CC(=O)Nc1cc2c(Nc3ccc(F)c(Cl)c3)ncnc2cc1OCCCN1CCOCC1 [canertinib] | – | – | – | – | – | – | inhibit ELF3-MED23 protein-protein interaction (PPI) | superior PPI inhibitory activity compared to gefitinib | – | –
9 | Cc1ccc(S(=O)(=O)n2ccc3c(OCC(O)CN(CCCCCN)C(=O)N4CCC(C5CCN(C(=O)C67CC8CC(CC(C8)C6)C7)CC5)CC4)cccc32)cc1 (centres unmarked) [wrenchnolol] | – | – | – | – | – | – | inhibit ELF3-MED23 protein-protein interaction (PPI) | – | – | –
10 | ELF3137-144: ELF3137-144 peptide (8 a.a.), amino acids 137-144 of ELF3 (SWIIELLE; UniProt P78545 137-144, looked up, fragment) [reference compound] | – | – | – | – | – | – | – | superior PPI inhibitory activity compared to gefitinib | 0.78 ± 0.05 | 53
